Laboratory results: PubChem BioAssay (NCI)
Several values for one entry are separate records, joined by “and”; a condition that tells them apart may be missing. Equal entries are not always repeated.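 Step 1: Grow cells in 96-well plates. Step 2: Expose to compound for 48 hours at 5 concentrations. Step 3: Interpolate endpoints linearly; if unreached, use highest concentration. GI50 is the concentration that inhibits growth by half. TGI: concentration producing complete growth inhibition.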

Experiments:
Assay in all cases: DTP human tumour cell line panel, 48 h
T-47D breast = tested on: T-47D breast
OVCAR-3 ovarian = tested on: OVCAR-3 ovarian
M14 melanoma = tested on: M14 melanoma
UACC-257 melanoma = tested on: UACC-257 melanoma
KM12 colon = tested on: KM12 colon
MDA-MB-435 = tested on: MDA-MB-435
HS 578T breast = tested on: HS 578T breast
OVCAR-4 ovarian = tested on: OVCAR-4 ovarian
U251 CNS = tested on: U251 CNS
TK-10 renal = tested on: TK-10 renal

SMILES	TGI (T-47D breast)	GI50 (OVCAR-3 ovarian)	TGI (OVCAR-3 ovarian)	TGI (M14 melanoma)	GI50 (UACC-257 melanoma)	TGI (UACC-257 melanoma)	GI50 (KM12 colon)	GI50 (MDA-MB-435)	TGI (MDA-MB-435)	GI50 (HS 578T breast)	TGI (HS 578T breast)	GI50 (OVCAR-4 ovarian)	TGI (OVCAR-4 ovarian)	TGI (U251 CNS)	GI50 (TK-10 renal)	GI50 (T-47D breast)	GI50 (M14 melanoma)	TGI (KM12 colon)	GI50 (U251 CNS)	TGI (TK-10 renal)
C=C/C=C/[C@@H](O)CC(=C)C[C@H]1OC2[C@H](C)[C@@H](OC(=O)C[C@H]3C[C@H](OC(C)=O)C[C@@]4(C[C@@](C)(O)C[C@H](CC(=C)[C@@H](C)[C@H](OC(C)=O)[C@H](C)C(=O)C[C@@H]5C[C@H](OC)CC6(C[C@@H](O)C[C@H](/C=C\CCC[C@H]7O[C@](O)(C=C[C@H]7C)[C@H]2O)O6)O5)O4)O3)[C@@H]1O	> 25 µM	< 0.0025 µM	< 0.0025 µM	0.00709 µM	0.00248 µM	> 25 µM	0.000327 µM and 0.0025 µM	< 0.0025 µM	< 0.0025 µM	0.00177 µM	0.0082 µM	0.000835 µM and 0.0025 µM	> 25 µM	> 25 µM	0.00162 µM and 0.0025 µM					
COC(=O)c1ccc(CN2C(=O)C(Cl)=C(Nc3cccc(Cl)c3C)C2=O)cc1	> 100 µM	20.2 µM	70.3 µM	> 100 µM	45.6 µM	> 100 µM	4.03 µM	7.89 µM	37.9 µM	21 µM	95.5 µM	26.5 µM	> 100 µM	> 100 µM	47.8 µM	> 100 µM	4.01 µM	> 100 µM	32.4 µM	> 100 µM
CCC(C)Nc1ccc(N)cc1 (stereo unspecified)	14.1 µM	2.28 µM	5.54 µM	15.5 µM	5.33 µM	16.9 µM	4.09 µM	4.11 µM	15.3 µM	4.35 µM	24.4 µM	3.18 µM	38.6 µM	13 µM	5.72 µM	3.63 µM	4.72 µM	13.5 µM	3.64 µM	25.3 µM
CNC(=O)c1cc(Oc2ccc(NC(=O)Nc3ccc(Cl)c(C(F)(F)F)c3)c(F)c2)ccn1	9.1 µM and 7.49 µM	3.05 µM and 3.03 µM	11.6 µM and > 10 µM	6.75 µM and 8.81 µM	1.97 µM and 1.35 µM	6.03 µM and 5.1 µM	1.9 µM and 1.49 µM	1.56 µM and 1.52 µM	4.8 µM and 4.85 µM	1.59 µM and 1.61 µM	16.9 µM and > 10 µM	2.56 µM and 2.74 µM	19.7 µM and > 10 µM	11.3 µM and > 10 µM	3.5 µM and 3.03 µM	2.08 µM and 1.53 µM	1.38 µM and 1.28 µM	7.86 µM and > 10 µM	2.79 µM and 2.46 µM	27.8 µM and > 10 µM
CCc1ccc(CCC(=O)Nc2ncc(Cc3ccc(Cl)cc3)s2)o1	> 100 µM	0.248 µM	0.682 µM			> 100 µM	0.377 µM	0.147 µM	0.366 µM	0.3 µM	27.9 µM	> 100 µM	> 100 µM	> 100 µM		1.48 µM	0.271 µM	> 100 µM	0.371 µM	> 100 µM
Nc1nc([Se])c2ncn(C3OC(CO)C(O)C3O)c2n1 (stereo unspecified)	> 100 µM	17.4 µM	68.8 µM	> 100 µM	37.5 µM	> 100 µM	10.2 µM	15.1 µM	> 100 µM	4.71 µM	> 100 µM	27.4 µM	> 100 µM	> 100 µM	7.55 µM	28.8 µM	4.28 µM	54.9 µM	73.3 µM	> 100 µM
CCOC(=O)Oc1cc2c(c(OC)c1OC)-c1ccc(OC)c(=O)cc1C(NC(C)=O)CC2 (stereo unspecified)	> 100 µM		0.135 µM	> 70.6 µM		> 100 µM			0.0168 µM		> 100 µM		> 100 µM	8.56 µM				1.68 µM		> 100 µM
CCC(C)[C@H](NC(=O)Nc1cc(C(F)(F)F)cc(C(F)(F)F)c1)C(=O)N[C@@H](Cc1cn(C)cn1)C(=O)OC (stereo partly specified)	1.74 µM	0.621 µM	1.14 µM	1.98 µM	1.3 µM	1.85 µM	0.788 µM	0.825 µM	1.85 µM	1.47 µM	2.61 µM	0.599 µM	1.12 µM	1.8 µM	3.65 µM	0.912 µM	1.11 µM	1.83 µM	1.33 µM	
Cc1ccc(S(=O)(=O)SC(C)(C)C)cc1	> 100 µM		39.3 µM	> 88.8 µM		50.3 µM			77.6 µM		> 100 µM		46.5 µM	> 100 µM				> 91.4 µM		> 100 µM
Cc1cc2c(cc1Cl)S/C(=C/C(=O)O)C(Nc1ccc3ncsc3c1)=NS2(=O)=O	> 54.8 µM	14 µM	41.2 µM	> 38.1 µM	> 27.2 µM	> 46 µM	27.5 µM	> 33.5 µM	> 53.4 µM	9.81 µM	> 40.9 µM	> 34.3 µM	> 54.5 µM	> 63.9 µM	17.9 µM	22.1 µM	12.7 µM	> 48 µM	28.6 µM	51.1 µM
COc1ncc(Nc2ncc([C@@H](C)N3CCN(S(C)(=O)=O)CC3)cc2-c2nc(C)nc(N)n2)cc1F	0.0648 µM	0.0468 µM	11.2 µM	38.8 µM	0.0561 µM	> 79.4 µM	1.33 µM	1.15 µM	> 100 µM	0.0244 µM	3.02 µM	3.29 µM	> 100 µM	> 100 µM	0.0222 µM	< 0.01 µM	2.16 µM	> 100 µM	0.385 µM	1.22 µM
C[C@]12CC[C@H]3[C@@H](CC=C4C[C@@H](N5CCCC5)CC[C@@]43C)[C@@H]1C/C(=C\c1cccc(OCCN3CCOCC3)c1)[C@@H]2O	> 100 µM	2.3 µM	7.55 µM	4.07 µM	2.55 µM	6.65 µM	5.02 µM	3.64 µM	> 100 µM	2.88 µM	18.2 µM	13.3 µM	55.2 µM	> 100 µM	4.15 µM	2.67 µM	1.96 µM	> 100 µM	2.95 µM	46.7 µM
CC(C)(C)C1CCC2c3c([nH]c4ccccc34)C3C(=O)N(c4ccc(Cl)cc4)C(=O)C3C2C1 (stereo unspecified)	> 100 µM	30.3 µM and > 10 µM	> 100 µM	> 100 µM	> 100 µM	> 100 µM	44.3 µM and > 10 µM	> 100 µM	> 100 µM	> 100 µM	> 100 µM	59.5 µM and > 10 µM	> 100 µM	> 100 µM	> 100 µM	60.9 µM and > 10 µM	54.3 µM and > 10 µM	> 100 µM	56.5 µM and > 10 µM	> 100 µM
COc1ccc(C/C(=C(\C)c2ccc(OCCN3CCCC3)cc2)c2ccc(OCCN3CCCC3)cc2)cc1	3.37 µM	2 µM	3.87 µM	3.5 µM	1.76 µM	3.31 µM	1.79 µM	1.7 µM	3.24 µM	2.17 µM	4.83 µM	2.08 µM	5.1 µM	3.32 µM	1.55 µM	1.69 µM	1.67 µM	3.52 µM	1.8 µM	3.02 µM
